Measurements taken from patent US6949544B2, “Inhibitors of c-Jun N-terminal kinases (JNK) and other protein kinases” (Vertex Pharmaceuticals Incorporated, priority 2001, dated 2005).
pKi: −log10 of the molar value.

Key:
Assay type in all cases: biochemical
activated JNK3 = molecular target: T1, activated JNK3 (Homo sapiens, UniProt P53779); assay: JNK inhibition assay (spectrophotometric coupled-enzyme assay); conditions: for pKi: 10 nM activated JNK3, 10 μM ATP, read-out: Activity in the JNK3 Inhibition Assay (Ki rating A-C)
T1 construct: One such construct encodes amino acid residues Ser40-Glu402 of JNK3α1 and is preceded by Met and Gly residues; Met-Gly (initiator methionine and added glycine) (N); made in house; host or cells: E. coli BL21 (DE3)
Excerpt: A BLAST search of the EST database using the published JNK3α1 cDNA as a query identified an EST clone (#632588) that contained the entire coding sequence for human JNK3α1. Polymerase chain reactions (PCR) using pfu polymerase (Strategene) were used to introduce restriction sites into the cDNA for cloning into the pET-15B expression vector at the NcoI and BamHI sites. The protein was expressed in E. coli. […] This truncation corresponds to Ser 2 of JNK1 and JNK2 proteins, and is preceded by a methionine (initiation) and a glycine residue. The glycine residue was added in order to introduce an NcoI site for cloning into the expression vector. In addition, systematic C-terminal truncations were performed by PCR to identify a construct that give rise to diffraction-quality crystals.
5 mg of JNK3 was diluted to 0.5 mg/ml in 50 mM HEPES buffer, pH 7.5, containing 100 mM NaCl, 5 mM DTT, 20 mM MgCl2 and 1 mM ATP. GST-MKK7(DD) was added at a molar ratio of 1:2.5 GST-MKK7:JNK3. After incubation for 30 minutes at 25° C., the reaction mixture was concentrated 5-fold by ultrafiltration in a Centriprep-30 (Amicon, Beverly, Mass.), diluted to 10 ml and an additional 1 mM ATP added. This procedure was repeated three times to remove ADP and replenish ATP. The final addition of ATP was 5 mM and the mixture incubated overnight at 4° C.
The activated JNK3/GST-MKK7(DD) reaction mixture was exchanged into 50 mM HEPES buffer, pH 7.5, containing 5 mM DTT and 5% glycerol (w/v) by dialysis or ultrafiltration. The reaction mixture was adjusted to 1.1 M potassium phosphate, pH 7.5, and purified by hydrophobic interaction chromatography (at 25° C.) using a Rainin Hydropore column. […] Activated JNK3 (i.e. doubly phosphorylated JNK3) was stored at −70° C. at 0.25-1 mg/ml.
Compounds were assayed for the inhibition of JNK3 by a spectrophotometric coupled-enzyme assay. In this assay, a fixed concentration of activated JNK3 (10 nM) was incubated with various concentrations of a potential inhibitor dissolved in DMSO for 10 minutes at 30° C. in a buffer containing 0.1 M HEPES buffer, pH 7.5, containing 10 mM MgCl2, 2.5 mM phosphoenolpyruvate, 200 μM NADH, 150 μg/mL pyruvate kinase, 50 μg/mL lactate dehydrogenase, and 200 μM EGF receptor peptide. […] The reaction was initiated by the addition of 10 μM ATP and the assay plate is inserted into the spectrophotometer's assay plate compartment that was maintained at 30° C. The decrease of absorbance at 340 nm was monitored as a function of time. The rate data as a function of inhibitor concentration was fitted to competitive inhibition kinetic model to determine the Ki.

[1] = molecular target: Glycogen Synthase Kinase 3 (GSK-3) (Homo sapiens, UniProt P49841); assay: GSK-3 inhibition assay (standard coupled enzyme assay); conditions: 60 nM GSK-3, 10 μM ATP; read-out: GSK-3 Inhibitory Activity (Ki rating A-C)
Experimental: Compounds were screened in the following manner for their ability to inhibit Glycogen Synthase Kinase 3 (GSK-3) using a standard coupled enzyme assay (Fox et al (1998) Protein Sci 7, 2249). To an assay stock buffer solution containing 0.1M HEPES 7.5, 10 mM MgCl2, 25 mM NaCl, 2.5 mM phosphoenolpyruvate, 300 μM NADH, 1 mM DTT, 30 μg/mL pyruvate kinase, 10 μg/mL lactate dehydrogenase, 300 μM peptide (HSSPHQp-SEDEEE, American Peptide, Sunnyvale, Calif.), and 60 nM GSK-3, was added a 30 μM solution of the compound in DMSO and the resulting mixture incubated at 30° C. for 5 min. The reaction was initiated by the addition of 10 μM ATP. The rates of reaction were obtained by monitoring absorbance at 340 nm over a 5 minute read time at 30° C. using a Molecular Devices plate reader (Sunnyvale, Calif.). The IC50 was determined from the rate data as a function of inhibitor concentration.

CDK-2/Cyclin A = CDK-2/Cyclin A (Homo sapiens, UniProt P24941); assay: CDK2 inhibition assay (standard coupled enzyme assay); conditions: 25 nM CDK-2/Cyclin A; read-out: CDK2 Inhibitory Activity (Ki rating A-C)
Experimental: Compounds were screened in the following manner for their ability to inhibit CDK2 using a standard coupled enzyme assay (Fox et al (1998) Protein Sci 7, 2249).
To an assay stock buffer solution containing 0.1M HEPES 7.5, 10 mM MgCl2, 1 mM DTT, 25 mM NaCl, 2.5 mM phosphoenolpyruvate, […], […], […], […], and 100 μM peptide ([…], American Peptide, Sunnyvale, Calif.) was added a DMSO solution of a compound of the present invention to a final concentration of 30 μM. The resulting mixture was incubated at 30° C. for 10 minutes.
The reaction was initiated by the addition of 10 μL of CDK-2/Cyclin A stock solution to give a final concentration of 25 nM in the assay. The rates of reaction were obtained by monitoring absorbance at 340 nm over a 5-minute read time at 30° C. using a BioRad Ultramark plate reader (Hercules, Calif.). The Ki values were determined from the rate data as a function of inhibitor concentration.

[2] = molecular target: T2, full length recombinant human Src kinase (Homo sapiens, UniProt P12931); assay: Src inhibition assay (33P incorporation into poly Glu-Tyr); conditions: at a 2 μM inhibitor concentration; read-out: Activity in the SRC Inhibition Assay (percent inhibition rating D-F)
T2 construct: full length recombinant human Src kinase; purchased Upstate Biotechnology 14-117; host or cells: baculo viral cells (baculovirus expression)
Experimental: The compounds were assayed as inhibitors of full length recombinant human Src kinase (from Upstate Biotechnology, cat. no. 14-117) expressed and purified from baculo viral cells. Src kinase activity was monitored by following the incorporation of ^33P from ATP into the tyrosine of a random poly Glu-Tyr polymer substrate of composition, Glu:Tyr=4:1 (Sigma, cat. no. P-0275). The following were the final concentrations of the assay components: 0.05 M HEPES, pH 7.6, 10 mM MgCl2, 2 mM DTT, 0.25 mg/ml BSA, 10 μM ATP (1-2 μCi ^33P-ATP per reaction), 5 mg/ml poly Glu-Tyr, and 1-2 units of recombinant human Src kinase. In a typical assay, all the reaction components with the exception of ATP were pre-mixed and aliquoted into assay plate wells. […] The assay plate was incubated at 30° C. for 10 min before initiating the reaction with ^33P-ATP. After 20 min of reaction, the reactions were quenched with 150 μl of 10% trichloroacetic acid (TCA) containing 20 mM Na3PO4. The quenched samples were then transferred to a 96-well filter plate (Whatman, UNI-Filter GF/F Glass Fiber Filter, cat no. 7700-3310) installed on a filter plate vacuum manifold. Filter plates were washed four times with 10% TCA containing 20 mM Na3PO4 and then 4 times with methanol. 200 μl of scintillation fluid was then added to each well. The plates were sealed and the amount of radioactivity associated with the filters was quantified on a TopCount scintillation counter.

[3] = molecular target: T3, Lck kinase purified from bovine thymus (Bos taurus, UniProt Q3ZCM0); assay: Lck inhibition assay (33P incorporation into poly Glu-Tyr); conditions: for pKi: 10 μM ATP, read-out: Activity in the Lck Inhibition Assay (Ki rating A-C)
T3 construct: Lck kinase purified from bovine thymus; purchased Upstate Biotechnology 14-106; host or cells: bovine thymus (tissue-purified)
Procedure, shortened: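 Filter-binding radiometric assay of 33P transfer from ATP to poly Glu-Tyr (4:1, 5 mg/ml) by bovine thymus Lck in 0.05 M HEPES pH 7.6, 10 mM MgCl2, 2 mM DTT, 0.25 mg/ml BSA, 10 μM ATP. After 10 min at 30° C, reaction started with 33P-ATP, run 20 min, quenched with TCA; filter-bound radioactivity counted by scintillation.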

T1 sequence (P53779 40-402): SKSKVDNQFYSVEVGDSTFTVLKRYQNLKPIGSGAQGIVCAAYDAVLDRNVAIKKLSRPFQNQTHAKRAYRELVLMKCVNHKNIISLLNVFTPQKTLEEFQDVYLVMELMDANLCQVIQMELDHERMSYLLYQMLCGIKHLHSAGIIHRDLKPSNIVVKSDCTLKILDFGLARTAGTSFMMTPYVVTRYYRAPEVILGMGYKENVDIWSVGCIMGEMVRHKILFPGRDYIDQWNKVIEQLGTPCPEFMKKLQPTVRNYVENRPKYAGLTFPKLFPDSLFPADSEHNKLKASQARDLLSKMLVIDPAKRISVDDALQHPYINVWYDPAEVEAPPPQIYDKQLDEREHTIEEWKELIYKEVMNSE
T2 sequence (P12931 whole entry): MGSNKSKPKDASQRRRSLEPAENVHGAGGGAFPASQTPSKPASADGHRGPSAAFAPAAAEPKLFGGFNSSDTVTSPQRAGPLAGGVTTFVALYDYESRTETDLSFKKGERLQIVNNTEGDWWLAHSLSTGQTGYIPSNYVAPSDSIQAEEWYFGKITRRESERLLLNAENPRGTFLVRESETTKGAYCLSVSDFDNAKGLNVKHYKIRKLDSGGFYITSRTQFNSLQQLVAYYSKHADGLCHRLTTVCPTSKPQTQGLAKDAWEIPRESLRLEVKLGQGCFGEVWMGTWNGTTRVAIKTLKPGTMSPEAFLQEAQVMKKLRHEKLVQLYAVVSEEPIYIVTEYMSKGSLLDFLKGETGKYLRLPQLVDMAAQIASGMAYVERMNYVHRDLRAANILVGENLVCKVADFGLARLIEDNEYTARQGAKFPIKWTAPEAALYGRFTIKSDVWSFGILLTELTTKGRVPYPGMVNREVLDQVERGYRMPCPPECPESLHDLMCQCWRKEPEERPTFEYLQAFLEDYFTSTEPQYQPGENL
T3 sequence (Q3ZCM0 1-509): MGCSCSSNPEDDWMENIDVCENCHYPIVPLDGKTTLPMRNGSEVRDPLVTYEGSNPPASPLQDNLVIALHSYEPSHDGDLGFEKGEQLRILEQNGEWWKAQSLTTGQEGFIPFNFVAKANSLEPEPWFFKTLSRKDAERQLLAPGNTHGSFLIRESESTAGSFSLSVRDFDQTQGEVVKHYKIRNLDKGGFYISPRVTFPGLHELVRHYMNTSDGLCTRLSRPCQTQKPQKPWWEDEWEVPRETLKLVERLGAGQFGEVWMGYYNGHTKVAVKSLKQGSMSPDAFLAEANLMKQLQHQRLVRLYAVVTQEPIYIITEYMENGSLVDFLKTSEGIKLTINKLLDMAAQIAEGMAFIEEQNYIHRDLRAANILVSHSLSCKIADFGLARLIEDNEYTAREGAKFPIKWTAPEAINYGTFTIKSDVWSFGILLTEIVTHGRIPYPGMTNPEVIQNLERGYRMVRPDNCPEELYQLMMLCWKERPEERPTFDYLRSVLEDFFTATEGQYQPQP
Chain of Glycogen Synthase Kinase 3 (GSK-3) (P49841 whole entry): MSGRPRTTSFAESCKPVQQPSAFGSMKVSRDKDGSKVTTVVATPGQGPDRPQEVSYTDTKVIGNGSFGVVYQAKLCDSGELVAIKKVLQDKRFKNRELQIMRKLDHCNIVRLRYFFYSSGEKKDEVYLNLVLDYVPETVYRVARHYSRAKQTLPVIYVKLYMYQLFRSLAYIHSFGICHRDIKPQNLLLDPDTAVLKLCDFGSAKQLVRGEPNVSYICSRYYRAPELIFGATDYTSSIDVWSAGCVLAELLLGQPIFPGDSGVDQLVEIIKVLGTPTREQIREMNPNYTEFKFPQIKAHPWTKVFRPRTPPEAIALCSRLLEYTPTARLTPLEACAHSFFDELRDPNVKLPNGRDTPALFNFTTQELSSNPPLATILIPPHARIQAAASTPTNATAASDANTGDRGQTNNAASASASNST

SMILES	pKi (activated JNK3)	pKi [1]	pKi (CDK-2/Cyclin A)	inhibition at 2 µM [2] [%]	pKi [3]	Activity in the JNK3 Inhibition Assay (percent inhibition rating D-F) (activated JNK3; at a 2 μM inhibitor concentration)	Activity in the Lck Inhibition Assay (percent inhibition rating D-F) ([3]; at a 5 μM inhibitor concentration)
COc1c(Br)cc(-c2ccnc(Nc3cccc(Cl)c3)n2)cc1Br [Compound I-43]	6.00 to 7.00	6.00 to 7.00	< 5.30	–	–	–	–
COc1cccc(Nc2nccc(-c3cc(OC)c(OCCN4CCOCC4)c(OC)c3)n2)c1 [Compound I-49]	> 7.00	6.00 to 7.00	< 5.30	–	–	–	–
CCOc1c(OC)cc(-c2ccnc(Nc3cccc(OC)c3)n2)cc1OC [Compound I-50]	> 7.00	–	–	67 to 100	–	–	–
COc1cccc(Nc2nccc(-c3cc(Cl)c(OC)c(Cl)c3)n2)c1 [Compound I-51]	> 7.00	6.00 to 7.00	< 5.30	–	–	–	–
COc1cc(-c2ccnc(Nc3cccc(O)c3)n2)cc(OC)c1OC [Compound I-58]	> 7.00	–	–	24 to 66	–	–	–
COc1cc(-c2ccnc(Nc3ccc4c(c3)OCO4)n2)cc(OC)c1OC [Compound I-63]	> 7.00	–	–	24 to 66	–	–	–
COc1cc(-c2ccnc(Nc3nc4ccccc4[nH]3)n2)cc(OC)c1OC [Compound I-65]	–	> 7.00	< 5.30	–	–	D (percent inhibition less than or equal to 33%)	–
COc1cc(-c2ccnc(Nc3ccc(S(N)(=O)=O)cc3)n2)cc(OC)c1OC [Compound I-66]	> 7.00	> 7.00	> 5.70	–	–	–	E (percent inhibition of between 24% and 66%)
COc1cc(-c2ccnc(Nc3ccc(Cl)nc3)n2)cc(OC)c1O [Compound I-73]	> 7.00	–	–	24 to 66	–	–	–
COc1cc(-c2ccnc(Nc3ccccc3)n2)cc2c1OCCO2 [Compound I-74]	> 7.00	–	–	24 to 66	–	–	–

Continued, in another order:

pKi (activated JNK3)	pKi [1]	pKi (CDK-2/Cyclin A)	inhibition at 2 µM [2] [%]	pKi [3]	SMILES	Activity in the JNK3 Inhibition Assay (percent inhibition rating D-F) (activated JNK3; at a 2 μM inhibitor concentration)	Activity in the Lck Inhibition Assay (percent inhibition rating D-F) ([3]; at a 5 μM inhibitor concentration)
–	< 6.00	–	–	< 6.00	COc1c(-c2ccnc(Nc3cccc(OCc4ccccc4)c3)n2)ccc2c1OCCO2 [II-18]	–	–
–	> 7.00	–	–	> 7.00	COc1ccc(-c2ccnc(Nc3cccc(Oc4cccc([N+](=O)[O-])c4)c3)n2)c(OC)c1OC [II-25]	–	–
–	> 7.00	–	–	> 7.00	COc1ccc(-c2ccnc(Nc3cccc(Oc4cccc(N)c4)c3)n2)c(OC)c1OC [II-26]	–	–
> 7.00	6.00 to 7.00	–	–	< 6.00	COc1ccc(-c2ccnc(Nc3ncnc(Nc4ccccc4)n3)n2)c(OC)c1OC [II-32]	–	–
< 6.00	< 6.00	–	–	< 6.00	COc1cccc(Nc2ncnc(Nc3nccc(-c4ccc(OC)c(OC)c4OC)n3)n2)c1 [II-33]	–	–
–	< 6.00	< 5.30	–	6.00 to 7.00	COc1ccc(-c2ccc(C)c(Nc3nccc(-c4ccc(OC)c(OC)c4OC)n3)c2)cc1 [II-44]	–	–
–	< 6.00	< 5.30	–	6.00 to 7.00	COc1ccc(-c2ccnc(Nc3cc(-c4cccc(F)c4)ccc3C)n2)c(OC)c1OC [II-45]	–	–
–	< 6.00	< 5.30	–	6.00 to 7.00	COc1ccc(-c2ccnc(Nc3cc(-c4cccc(N)c4)ccc3C)n2)c(OC)c1OC [II-46]	–	–
–	6.00 to 7.00	< 5.30	–	6.00 to 7.00	COc1ccc(-c2ccnc(Nc3cc(-c4cccc(O)c4)ccc3C)n2)c(OC)c1OC [II-47]	–	–
–	6.00 to 7.00	< 5.30	–	6.00 to 7.00	COc1ccc(-c2ccccc2)cc1Nc1nccc(-c2ccc(OC)c(OC)c2OC)n1 [II-48]	–	–
–	6.00 to 7.00	< 5.30	–	6.00 to 7.00	COc1ccc(Nc2nccc(-c3ccc(OC)c(OC)c3OC)n2)cc1O [II-70]	–	–
–	< 6.00	< 5.30	–	6.00 to 7.00	COc1ccc(Nc2nccc(-c3ccc(OC)c(OC)c3OC)n2)cc1[N+](=O)[O-] [II-71]	–	–
–	< 6.00	< 5.30	–	< 6.00	COc1ccc(Nc2nccc(-c3ccc(OC)c(OC)c3OC)n2)cc1N [II-72]	–	–
–	> 7.00	< 5.30	–	> 7.00	COc1ccc(Oc2cc(Nc3nccc(-c4ccc(OC)c(OC)c4OC)n3)ccc2OC)cc1 [II-73]	–	–
–	> 7.00	< 5.30	–	> 7.00	COc1ccc(Nc2nccc(-c3ccc(OC)c(OC)c3OC)n2)cc1Oc1cccc(Cl)c1 [II-74]	–	–
–	> 7.00	< 5.30	–	> 7.00	COc1cccc(Oc2cc(Nc3nccc(-c4ccc(OC)c(OC)c4OC)n3)ccc2OC)c1 [II-75]	–	–
–	6.00 to 7.00	< 5.30	–	> 7.00	CCOc1ccc(Oc2cc(Nc3nccc(-c4ccc(OC)c(OC)c4OC)n3)ccc2OC)cc1 [II-76]	–	–
